Source: patent US20050119231A1, “Quinolone antibacterial agents” (priority 2003, published 2005)
In brackets after ≈: the same amount, converted by molar mass.

Key:
Assay in all cases: Antibacterial microtitration assay (Test A), MIC
Type in all cases: cell-based
H. influenzae HI-3542 = conditions: Haemophilus influenzae, HI3542; Gram Negative Bacteria; strain HI-3542; read-out: Minimum Inhibitory Concentrations H. influenzae HI-3542
Experimental: (§1) Test A—Antibacterial Assays
(§2) The compounds of the present invention were tested against an assortment of Gram-negative and Gram-positive organisms using standard microtitration techniques (Cohen et. al., Antimicrob., 1985;28:766; Heifetz, et. al., Antimicrob., 1974;6:124).

M. catarrhalis BC-3531 = conditions: Moraxella catarrhalis, BC3531; Gram Negative Bacteria; strain BC-3531; read-out: Minimum Inhibitory Concentrations M. catarrhalis BC-3531
Experimental: as §1, §2

E. coli EC-2549 = conditions: Escherichia coli, EC2549; Gram Negative Bacteria; strain EC-2549; read-out: Minimum Inhibitory Concentrations E. coli EC-2549
Experimental: as §1, §2

S. pneumo SV-1 = conditions: Streptococcus pneumoniae, SV1; Gram Positive Bacteria; strain SV-1; read-out: Minimum Inhibitory Concentrations S. pneumo SV-1
Experimental: as §1, §2

S pyogenes C203 = conditions: Gram Positive Bacteria; strain C203; read-out: Minimum Inhibitory Concentrations S pyogenes C203
Experimental: as §1, §2

S. aureus UC-76 = conditions: Staphylococcus aureus, UC76; Gram Positive Bacteria; strain UC-76; read-out: Minimum Inhibitory Concentrations S. aureus UC-76
Experimental: as §1, §2

E. faecalis MGH-2 = conditions: Enterococcus faecalis, MGH2; Gram Positive Bacteria; strain MGH-2; read-out: Minimum Inhibitory Concentrations E. faecalis MGH-2
Experimental: as §1, §2

MIC (H. influenzae HI-3542) [µg/mL]	MIC (M. catarrhalis BC-3531) [µg/mL]	MIC (E. coli EC-2549) [µg/mL]	MIC (S. pneumo SV-1) [µg/mL]	MIC (S pyogenes C203) [µg/mL]	MIC (S. aureus UC-76) [µg/mL]	MIC (E. faecalis MGH-2) [µg/mL]	SMILES
0.5 (≈ 1.32 µM)	1 (≈ 2.64 µM)	4 (≈ 10.6 µM)	–	–	–	–	Cc1c(N2CCC(C(O)CO)C2)c(F)cc2c(=O)n(N)c(=O)n(C3CC3)c12 (stereo not shown) [drawing 317]
–	–	–	1 (≈ 2.87 µM)	2 (≈ 5.74 µM)	0.5 (≈ 1.44 µM)	2 (≈ 5.74 µM)	Cc1c(N2CCC(CO)C2)c(F)cc2c(=O)n(N)c(=O)n(C3CC3)c12 (stereo not shown) [drawing 320]
–	–	–	8 (≈ 18.7 µM)	8 (≈ 18.7 µM)	2 (≈ 4.67 µM)	16 (≈ 37.3 µM)	COc1c(N2CCC(C(O)C(C)(F)F)C2)c(F)cc2c(=O)n(N)c(=O)n(C3CC3)c12 (stereo not shown) [drawing 323]
–	–	–	8 (≈ 19.8 µM)	8 (≈ 19.8 µM)	1 (≈ 2.47 µM)	8 (≈ 19.8 µM)	Cc1c(N2CC3CCC(O)(CO)C3C2)c(F)cc2c(=O)n(N)c(=O)n(C3CC3)c12 (stereo not shown) [drawing 345]
–	–	–	4 (≈ 9.63 µM)	4 (≈ 9.63 µM)	1 (≈ 2.41 µM)	8 (≈ 19.3 µM)	Cc1c(N2CCC(C(O)c3ncco3)C2)c(F)cc2c(=O)n(N)c(=O)n(C3CC3)c12 (stereo not shown) [drawing 322]
1 (≈ 2.41 µM)	2 (≈ 4.81 µM)	16 (≈ 38.5 µM)	–	–	–	–	Cc1c(N2CCC(C(O)c3ncco3)C2)c(F)cc2c(=O)n(N)c(=O)n(C3CC3)c12 (stereo not shown) [drawing 313]
–	–	–	1 (≈ 2.64 µM)	1 (≈ 2.64 µM)	0.25 (≈ 0.661 µM)	2 (≈ 5.29 µM)	Cc1c(N2CCC(C(O)CO)C2)c(F)cc2c(=O)n(N)c(=O)n(C3CC3)c12 (stereo not shown) [drawing 326]
4 (≈ 9.89 µM)	4 (≈ 9.89 µM)	32 (≈ 79.1 µM)	–	–	–	–	Cc1c(N2CC3CCC(O)(CO)C3C2)c(F)cc2c(=O)n(N)c(=O)n(C3CC3)c12 (stereo not shown) [drawing 344]
0.5 (≈ 1.44 µM)	1 (≈ 2.87 µM)	4 (≈ 11.5 µM)	–	–	–	–	Cc1c(N2CCC(CO)C2)c(F)cc2c(=O)n(N)c(=O)n(C3CC3)c12 (stereo not shown) [drawing 311]
4 (≈ 9.34 µM)	8 (≈ 18.7 µM)	64 (≈ 149 µM)	–	–	–	–	COc1c(N2CCC(C(O)C(C)(F)F)C2)c(F)cc2c(=O)n(N)c(=O)n(C3CC3)c12 (stereo not shown) [drawing 314]
–	–	–	4 (≈ 9.21 µM)	8 (≈ 18.4 µM)	0.5 (≈ 1.15 µM)	4 (≈ 9.21 µM)	COc1c(N2CCC(C(O)C3(CO)CC3)C2)c(F)cc2c(=O)n(N)c(=O)n(C3CC3)c12 (stereo not shown) [drawing 325]
–	–	–	0.5 (≈ 1.16 µM)	1 (≈ 2.31 µM)	0.06 (≈ 0.139 µM)	1 (≈ 2.31 µM)	COc1c(N2CCC(C(O)C(F)(F)F)C2)c(F)cc2c(=O)n(N)c(=O)n(C3CC3)c12 (stereo not shown) [drawing 327]
1 (≈ 2.3 µM)	1 (≈ 2.3 µM)	8 (≈ 18.4 µM)	–	–	–	–	COc1c(N2CCC(C(O)C3(CO)CC3)C2)c(F)cc2c(=O)n(N)c(=O)n(C3CC3)c12 (stereo not shown) [drawing 316]
0.125 (≈ 0.289 µM)	0.125 (≈ 0.289 µM)	2 (≈ 4.63 µM)	–	–	–	–	COc1c(N2CCC(C(O)C(F)(F)F)C2)c(F)cc2c(=O)n(N)c(=O)n(C3CC3)c12 (stereo not shown) [drawing 318]

The remaining lines, values behind:

SMILES	MIC (H. influenzae HI-3542) [µg/mL]	MIC (M. catarrhalis BC-3531) [µg/mL]	MIC (E. coli EC-2549) [µg/mL]	MIC (S. pneumo SV-1) [µg/mL]	MIC (S pyogenes C203) [µg/mL]	MIC (S. aureus UC-76) [µg/mL]	MIC (E. faecalis MGH-2) [µg/mL]
Cc1c(N2C[C@](C)(CO)[C@](C)(CO)C2)c(F)cc2c(=O)n(N)c(=O)n(C3CC3)c12 [drawing 341]	16 (≈ 39.4 µM)	32 (≈ 78.7 µM)	64 (≈ 157 µM)	–	–	–	–
Nn1c(=O)c2cc(F)c(N3C[C@H](CO)[C@@H](CO)C3)nc2n(C2CC2)c1=O [drawing 331]	1 (≈ 2.74 µM)	4 (≈ 10.9 µM)	32 (≈ 87.6 µM)	–	–	–	–
COc1c(N2CCC(C(O)c3ncco3)C2)c(F)cc2c(=O)n(N)c(=O)n(C3CC3)c12 (stereo not shown) [drawing 312]	2 (≈ 4.64 µM)	2 (≈ 4.64 µM)	32 (≈ 74.2 µM)	–	–	–	–
Nn1c(=O)c2cc(F)c(N3C[C@H](CO)[C@H](F)C3)nc2n(C2CC2)c1=O [drawing 339]	–	–	–	2 (≈ 5.66 µM)	4 (≈ 11.3 µM)	0.25 (≈ 0.708 µM)	4 (≈ 11.3 µM)
Cc1c(N2C[C@](C)(CO)[C@](C)(CO)C2)c(F)cc2c(=O)n(N)c(=O)n(C3CC3)c12 [drawing 342]	–	–	–	16 (≈ 39.4 µM)	32 (≈ 78.7 µM)	2 (≈ 4.92 µM)	16 (≈ 39.4 µM)
Nn1c(=O)c2cc(F)c(N3C[C@H](CO)[C@H](F)C3)nc2n(C2CC2)c1=O [drawing 334]	0.5 (≈ 1.42 µM)	1 (≈ 2.83 µM)	4 (≈ 11.3 µM)	–	–	–	–
COc1c(N2CCC(CCO)C2)c(F)cc2c(=O)n(N)c(=O)n(C3CC3)c12 (stereo not shown) [drawing 315]	2 (≈ 5.29 µM)	1 (≈ 2.64 µM)	16 (≈ 42.3 µM)	–	–	–	–
Nn1c(=O)c2cc(F)c(N3C[C@@H](CCO)[C@@H](CCO)C3)nc2n(C2CC2)c1=O [drawing 338]	–	–	–	0.03 (≈ 0.0763 µM)	0.03 (≈ 0.0763 µM)	0.002 (≈ 0.00508 µM)	0.06 (≈ 0.153 µM)
Nn1c(=O)c2cc(F)c(N3C[C@@H](CO)[C@@H](CO)C3)nc2n(C2CC2)c1=O [drawing 335]	–	–	–	2 (≈ 5.47 µM)	1 (≈ 2.74 µM)	0.25 (≈ 0.684 µM)	4 (≈ 10.9 µM)
Nn1c(=O)c2cc(F)c(N3C[C@@H](O)[C@@H](O)C3)nc2n(C2CC2)c1=O [drawing 332]	0.5 (≈ 1.48 µM)	2 (≈ 5.93 µM)	16 (≈ 47.4 µM)	–	–	–	–
Nn1c(=O)c2cc(F)c(N3C[C@@H](CO)[C@@H](CO)C3)nc2n(C2CC2)c1=O [drawing 330]	0.5 (≈ 1.37 µM)	1 (≈ 2.74 µM)	16 (≈ 43.8 µM)	–	–	–	–
COc1c(N2CCC(C(O)c3ncco3)C2)c(F)cc2c(=O)n(N)c(=O)n(C3CC3)c12 (stereo not shown) [drawing 321]	–	–	–	8 (≈ 18.5 µM)	8 (≈ 18.5 µM)	0.5 (≈ 1.16 µM)	8 (≈ 18.5 µM)
COCC1CCN(c2c(F)cc3c(=O)n(N)c(=O)n(C4CC4)c3c2OC)C1 (stereo not shown) [drawing 319]	4 (≈ 10.6 µM)	4 (≈ 10.6 µM)	32 (≈ 84.6 µM)	–	–	–	–
COc1c(N2CCC(CCO)C2)c(F)cc2c(=O)n(N)c(=O)n(C3CC3)c12 (stereo not shown) [drawing 324]	–	–	–	2 (≈ 5.29 µM)	4 (≈ 10.6 µM)	0.5 (≈ 1.32 µM)	4 (≈ 10.6 µM)
Nn1c(=O)c2cc(F)c(N3C[C@@H](O)[C@@H](O)C3)nc2n(C2CC2)c1=O [drawing 337]	–	–	–	8 (≈ 23.7 µM)	8 (≈ 23.7 µM)	2 (≈ 5.93 µM)	8 (≈ 23.7 µM)
Nn1c(=O)c2cc(F)c(N3C[C@H](CO)[C@@H](CO)C3)nc2n(C2CC2)c1=O [drawing 336]	–	–	–	4 (≈ 10.9 µM)	2 (≈ 5.47 µM)	0.5 (≈ 1.37 µM)	8 (≈ 21.9 µM)
COCC1CCN(c2c(F)cc3c(=O)n(N)c(=O)n(C4CC4)c3c2OC)C1 (stereo not shown) [drawing 328]	–	–	–	2 (≈ 5.29 µM)	4 (≈ 10.6 µM)	1 (≈ 2.64 µM)	4 (≈ 10.6 µM)
Nn1c(=O)c2cc(F)c(N3C[C@@H](CCO)[C@@H](CCO)C3)nc2n(C2CC2)c1=O [drawing 333]	0.015 (≈ 0.0381 µM)	0.06 (≈ 0.153 µM)	0.125 (≈ 0.318 µM)	–	–	–	–
